Measured values as given in patent publication US12691084B2, “Pharmaceutical composition for preventing or treating bone diseases” (INDUSTRY FOUNDATION OF CHONNAM NATIONAL UNIVERSITY, priority 2019, dated 2026).

What was measured:
Plasma stability = type: in vitro ADME
Method: (§1) In order to analyze the drug metabolism of PMSA compound, ADME evaluation was requested to the Daegu-Gyeongbuk Advanced Medical industry Promotion Foundation (DGMIF). Metabolic stability of drugs using liver microsomes (microsomal stability), drug metabolism inhibitory ability by five CYP450 enzymes, plasma metabolism (plasma stability), plasma protein binding, and intestinal permeability of drugs (PAMPA, parallel artificial membrane permeability assay) were analyzed. […] Further, it was confirmed that the permeability resistance was excellent (see Table 3 below). On the other hand, for one of PMSA derivatives, that is, 2-(N-(3,5-dimethylphenyl)methylsulfinamido)-N-(2 (phenylthio)phenyl)propanamide (#25-D5), intestinal permeability of the drug (PAMPA) was not measured.

CYP2C19 = CYP2C19 (Homo sapiens, UniProt P33261); test: CYP450 drug metabolism inhibition, 2C19; type: in vitro ADME; conditions: criterion remaining activity >50%
Chain of CYP2C19 (P33261 whole entry): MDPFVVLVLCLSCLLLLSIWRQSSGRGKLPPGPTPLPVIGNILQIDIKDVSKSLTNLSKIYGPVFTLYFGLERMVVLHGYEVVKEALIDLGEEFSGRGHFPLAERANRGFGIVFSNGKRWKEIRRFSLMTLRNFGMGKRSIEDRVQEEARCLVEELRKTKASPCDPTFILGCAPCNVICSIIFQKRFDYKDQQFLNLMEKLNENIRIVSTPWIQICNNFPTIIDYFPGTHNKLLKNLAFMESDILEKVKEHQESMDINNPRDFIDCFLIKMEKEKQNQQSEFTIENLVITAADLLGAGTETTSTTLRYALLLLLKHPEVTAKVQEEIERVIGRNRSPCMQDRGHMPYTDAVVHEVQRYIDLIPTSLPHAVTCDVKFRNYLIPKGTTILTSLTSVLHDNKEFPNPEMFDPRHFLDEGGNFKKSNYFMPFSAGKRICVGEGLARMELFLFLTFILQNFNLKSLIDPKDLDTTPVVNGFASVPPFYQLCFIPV
Method: as §1

mouse bone marrow cells = test: Bone resorption assay on calcium phosphate coated plate; type: cell-based; conditions: 6 days; for decrease in bone resorption ability: compared to differentiated osteoclasts (Ctrl) not treated, fluorescence absorbance
Method: Bone resorption ability was confirmed using a bone resorption assay kit (Cosmo Rio, CSR-BRA). 2.5×10^4 mouse bone marrow cells per well were put into a 48-well plate coated with calcium phosphate, followed by treating the cells with PMSA to perform differentiation for 6 days. After 6 days, a fluorescence absorbance was measured with the culture medium to confirm the bone absorption ability. Further, decomposition degree of calcium phosphate was photographed a microscope to confirm the bone resorption ability. […] In FIG. 4, BMMs refer to monocytes that are not differentiated osteoclasts.
Further, the bone resorption ability was confirmed using a bone resorption assay kit (Cosmo Bio, CSR-BRA). 2.5×10^4 mouse bone marrow cells per well were put into a 48-well plate coated with calcium phosphate, and were differentiated for 6 days while being treated with PSTP-3,5-Me. After 6 days, the fluorescence absorbance was measured with the culture medium to confirm the bone absorption ability.

Microsomal stability (M) = type: in vitro ADME, mouse; conditions: M of H/M; criterion >60%
Method: as §1

CYP1A2 = target: T1, CYP1A2 (Homo sapiens, UniProt P05177); test: CYP450 drug metabolism inhibition, 1A2; type: in vitro ADME; conditions: criterion remaining activity >50%
T1 sequence (P05177 1-516): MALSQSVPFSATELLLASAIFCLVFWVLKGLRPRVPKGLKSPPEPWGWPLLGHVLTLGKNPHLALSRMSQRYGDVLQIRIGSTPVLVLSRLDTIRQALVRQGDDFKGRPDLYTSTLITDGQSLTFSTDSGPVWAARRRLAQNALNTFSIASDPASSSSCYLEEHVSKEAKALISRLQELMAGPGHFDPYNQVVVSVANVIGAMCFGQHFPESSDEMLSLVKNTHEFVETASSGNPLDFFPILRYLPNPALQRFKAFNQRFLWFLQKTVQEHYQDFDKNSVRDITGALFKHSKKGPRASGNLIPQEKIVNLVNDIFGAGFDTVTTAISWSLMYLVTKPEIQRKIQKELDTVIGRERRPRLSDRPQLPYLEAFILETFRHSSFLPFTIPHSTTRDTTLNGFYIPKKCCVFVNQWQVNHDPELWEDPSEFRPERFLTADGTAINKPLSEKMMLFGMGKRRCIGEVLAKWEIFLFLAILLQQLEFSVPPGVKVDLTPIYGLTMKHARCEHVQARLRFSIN
Method: as §1

CYP3A4 = CYP3A4 (Homo sapiens, UniProt P08684); test: CYP450 drug metabolism inhibition, 3A4; type: in vitro ADME; conditions: for CYP 3A4 remaining activity: criterion remaining activity >50%
Chain of CYP3A4 (P08684 whole entry): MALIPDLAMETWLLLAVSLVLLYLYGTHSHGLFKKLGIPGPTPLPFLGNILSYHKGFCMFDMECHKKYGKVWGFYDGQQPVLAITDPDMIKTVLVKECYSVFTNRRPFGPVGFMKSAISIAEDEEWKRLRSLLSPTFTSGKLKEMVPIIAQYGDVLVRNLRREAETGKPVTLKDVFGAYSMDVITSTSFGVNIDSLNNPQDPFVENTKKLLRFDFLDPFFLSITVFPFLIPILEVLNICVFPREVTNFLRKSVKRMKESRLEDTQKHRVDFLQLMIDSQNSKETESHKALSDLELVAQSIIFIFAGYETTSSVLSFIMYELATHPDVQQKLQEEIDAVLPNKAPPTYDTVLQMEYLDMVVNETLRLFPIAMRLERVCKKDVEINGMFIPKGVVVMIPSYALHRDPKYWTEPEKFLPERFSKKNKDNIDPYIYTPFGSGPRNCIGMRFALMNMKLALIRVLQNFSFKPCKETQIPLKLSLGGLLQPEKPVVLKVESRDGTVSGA
Method: as §1

plasma proteins = test: Plasma protein binding (PPB); type: in vitro ADME, Human; conditions: for binding with plasma proteins: conclusion from ADME evaluation
Method: as §1

[1] = test system: monocytes isolated from mouse bone marrow treated with RANKL; test: Osteoclast differentiation inhibition, TRAP staining and assay; type: cell-based; conditions: for cells differentiated into osteoclasts (differentiation area ratio per total area): 10 μM, RANKL, Image J; for cells differentiated into osteoclasts (differentiation area ratio per total area) / osteoclast differentiation inhibitory ability: TRAP staining; for osteoclast differentiation inhibitory ability: area of differentiated osteoclasts
Method: Macrophages were isolated from bone marrow of 8-week old C57BL/6J mice, and seeded on a 96-well plate in an amount of 1×10^4 cells per well, followed by treating the cells with osteoclast differentiation factors M-CSF and RANKL at 30 ng/ml and 50 ng/ml, respectively. At the same time, the compounds were used for treatment, followed by culturing the cells for 3 to 4 days. Thereafter, differentiation influence was evaluated through TRAP staining and cell counting. Specific experimental procedures and results are as follows.
The bone marrow of a 10-week-old female mouse was isolated from the hip bone, femur and tibia, and incubated in α-MEM medium (Gibco, 12561-056, 10% fetal bovine serum, 1% penicillin/streptomycin) containing macrophage colony stimulating factor (M-CSF, PeproTech, 315-02, 30 ng/ml) for […] so as to isolate only monocytes. The isolated monocytes were treated with receptor activator of nuclear factor kappa B ligand (RANKL, PeproTech, 315-11, 50 ng/ml) to induce osteoclast differentiation. When a morphology of fused multinuclear cells began to appear from day 3 after treatment with RANKL, the cells were differentiated into giant multinuclear cells for 4 to 6 days (see FIG. 1), and dead by cell apoptosis after 6 days.
During RANKL treatment, each PMSA compound was also used for treatment, followed by culturing the cells for 3 or 5 days to confirm the effects of inhibiting osteoclast differentiation.
1×10^4 monocytes isolated from mouse bone marrow were put into a 96-well plate and treated with RANKL and PMSA together to confirm the effect of each PMSA on osteoclast differentiation ability. Each PMSA was used for treatment by concentration. The activity of tartrate-resistant acid phosphatase (TRAP), which has increased expression during osteoclast differentiation, was confirmed using a TRAP activity assay kit (Cosmo Bio, PMC-AK04F-COS) (see FIG. 2).
Further, after staining, the multinuclear cells formed during osteoclast differentiation were observed under a microscope, and each well was photographed and a differentiation area ratio per total area was determined using Image J software. […] Specifically, at 10 μM concentration, cells were differentiated into osteoclasts by 30% when using #25 (PMSA-3-Ac), similarly, 74% using #25-C (PMSA-Ph), 63% using #25-N (PMSA-PhN), 41% using #25-PhO (PMSA-O), and only 1% using #25-D12 (PMSA-2-OMe-5-Cl), respectively. […]

[2] = compared to group in which osteoclasts are normally differentiated

SMILES | Plasma S Human 30 min (% Remaining) (Plasma stability) | Plasma S Human 120 min (% Remaining) (Plasma stability) | CYP 2C19 remaining activity (CYP2C19) | decrease in bone resorption ability (mouse bone marrow cells) | Microsomal stability (>60%) M (Microsomal stability (M)) | CYP 1A2 remaining activity (CYP1A2) | CYP 3A4 remaining activity (CYP3A4) | PPB Human (%, bound) (plasma proteins) | binding with plasma proteins (plasma proteins) | cells differentiated into osteoclasts (differentiation area ratio per total area) [1] | osteoclast differentiation inhibitory ability [1] | bone resorption region (optical microscope) (mouse bone marrow cells) | bone resorption ability (fluorescence intensity) (mouse bone marrow cells; RANKL, 0, 3 or 10 μM) | utility as a drug such as influence on activity of CYP3A4 (CYP3A4; compared with other derivatives) | differentiation area [1, 2] | giant multinuclear cells [1, 2] | number of osteoclasts [1, 2]
CC(=O)c1cccc(N(CC(=O)Nc2ccccc2Sc2ccccc2)S(C)(=O)=O)c1 [#25, 2-(N-(3-acetylphenyl)methylsulfonamido)-N-(2-(phenylthio)phenyl)acetamide] | 87.1 % Remaining | 97.3 % Remaining | 6.2% | 16% | 8.0% | 85.7% | 53.3% | 98.4 %, bound | good | 30% | excellent |  |  |  |  |  | 
Cc1cc(C)cc(N([C@@H](C)C(=O)Nc2ccccc2Sc2ccccc2)S(C)(=O)=O)c1 [#25-D5, N^2-(3,5-dimethylphenyl)-N^2-(methylsulfonyl)-N-[2-(phenylthio)phenyl]alanineamide] | 100/100 % Remaining | 100/100 % Remaining | 21.7% |  | 14.7% | 85.1% | 13.4% | 99.8 %, bound |  |  |  | not largely shown | significantly decreased in a dose-dependent manner | not higher than other derivatives | significant reduction | significant reduction | significant reduction
COc1ccc(Cl)cc1N(CC(=O)Nc1ccccc1Sc1ccccc1)S(C)(=O)=O [#25-D12, 2-(N-(5-chloro-2-methoxyphenyl)methylsulfonamido)-N-(2-(phenylthio)phenyl)acetamide] | 98.3 % Remaining | 97.8 % Remaining | 6.3% | 12.5% | 21.7% | 77.9% | 26% | 99.8 %, bound | good | 1% | excellent |  |  |  |  |  | 
